Data from ChEMBL document CHEMBL1671696, “Deamplification of pfmdr1-containing amplicon on chromosome 5 in Plasmodium falciparum is associated with reduced resistance to artelinic acid in vitro” (Antimicrob Agents Chemother, 2010).
Values after ≈ are worked out from the molar mass of the structure shown.

Assays:
Plasmodium falciparum [1] = experiment: Ratio of IC50 for Plasmodium falciparum subclone 3A12 containing 2 copy number of pfmdr1-containing amplicon on chromosome 5 to IC50 for wild type Plasmodium falciparum W2; format: functional
Plasmodium falciparum [2] = experiment: Antimicrobial activity against Plasmodium falciparum subclone 3A8 containing 3 copy number of pfmdr1-containing amplicon on chromosome 5 assessed as growth inhibition by [3H]hypoxanthine incorporation assay; format: functional, organism-based
Plasmodium falciparum [3] = experiment: Ratio of IC50 for Plasmodium falciparum subclone 3A3 containing 1 copy number of pfmdr1-containing amplicon on chromosome 5 to IC50 for wild type Plasmodium falciparum W2; format: functional
Plasmodium falciparum [4] = experiment: Ratio of IC50 for Plasmodium falciparum subclone 3A17 containing 2 copy number of pfmdr1-containing amplicon on chromosome 5 to IC50 for wild type Plasmodium falciparum W2; format: functional
Plasmodium falciparum [5] = experiment: Ratio of IC50 for Plasmodium falciparum subclone 3A1 containing 1 copy number of pfmdr1-containing amplicon on chromosome 5 to IC50 for wild type Plasmodium falciparum W2; format: functional
Plasmodium falciparum [6] = experiment: Ratio of IC50 for Plasmodium falciparum subclone 3C10 containing 2 copy number of pfmdr1-containing amplicon on chromosome 5 to IC50 for wild type Plasmodium falciparum W2; format: functional
Plasmodium falciparum [7] = experiment: Antimicrobial activity against Plasmodium falciparum subclone 3C10 containing 2 copy number of pfmdr1-containing amplicon on chromosome 5 assessed as growth inhibition by [3H]hypoxanthine incorporation assay; format: functional, organism-based
Plasmodium falciparum [8] = experiment: Antimicrobial activity against Plasmodium falciparum subclone 3A26 containing 3 copy number of pfmdr1-containing amplicon on chromosome 5 assessed as growth inhibition by [3H]hypoxanthine incorporation assay; format: functional, organism-based
Plasmodium falciparum [9] = experiment: Ratio of IC50 for Plasmodium falciparum subclone 3A7 containing 4 copy number of pfmdr1-containing amplicon on chromosome 5 to IC50 for wild type Plasmodium falciparum W2; format: functional
Plasmodium falciparum [10] = experiment: Antimicrobial activity against Plasmodium falciparum subclone 3A12 containing 2 copy number of pfmdr1-containing amplicon on chromosome 5 assessed as growth inhibition by [3H]hypoxanthine incorporation assay; format: functional, organism-based
Plasmodium falciparum [11] = experiment: Ratio of IC50 for Plasmodium falciparum subclone 3A26 containing 3 copy number of pfmdr1-containing amplicon on chromosome 5 to IC50 for wild type Plasmodium falciparum W2; format: functional
Plasmodium falciparum [12] = experiment: Ratio of IC90 for Plasmodium falciparum subclone 3C1 containing 3 copy number of pfmdr1-containing amplicon on chromosome 5 to IC90 for wild type Plasmodium falciparum W2; format: functional
Plasmodium falciparum [13] = experiment: Ratio of IC50 for Plasmodium falciparum subclone 3C1 containing 3 copy number of pfmdr1-containing amplicon on chromosome 5 to IC50 for wild type Plasmodium falciparum W2; format: functional
Plasmodium falciparum [14] = experiment: Ratio of IC90 for Plasmodium falciparum subclone 3C20 containing 2 copy number of pfmdr1-containing amplicon on chromosome 5 to IC90 for wild type Plasmodium falciparum W2; format: functional
Plasmodium falciparum [15] = experiment: Ratio of IC90 for Plasmodium falciparum subclone 3A3 containing 1 copy number of pfmdr1-containing amplicon on chromosome 5 to IC90 for wild type Plasmodium falciparum W2; format: functional
Plasmodium falciparum [16] = experiment: Ratio of IC50 for Plasmodium falciparum subclone 3C20 containing 2 copy number of pfmdr1-containing amplicon on chromosome 5 to IC50 for wild type Plasmodium falciparum W2; format: functional
Plasmodium falciparum [17] = experiment: Ratio of IC90 for Plasmodium falciparum subclone 3A7 containing 4 copy number of pfmdr1-containing amplicon on chromosome 5 to IC90 for wild type Plasmodium falciparum W2; format: functional
Plasmodium falciparum [18] = experiment: Antimicrobial activity against Plasmodium falciparum subclone 3A7 containing 4 copy number of pfmdr1-containing amplicon on chromosome 5 assessed as growth inhibition by [3H]hypoxanthine incorporation assay; format: functional, organism-based
Plasmodium falciparum [19] = experiment: Antimicrobial activity against Plasmodium falciparum subclone 3A1 containing 1 copy number of pfmdr1-containing amplicon on chromosome 5 assessed as growth inhibition by [3H]hypoxanthine incorporation assay; format: functional, organism-based
Plasmodium falciparum [20] = experiment: Antimicrobial activity against Plasmodium falciparum subclone 3C20 containing 2 copy number of pfmdr1-containing amplicon on chromosome 5 assessed as growth inhibition by [3H]hypoxanthine incorporation assay; format: functional, organism-based
Plasmodium falciparum [21] = experiment: Antimicrobial activity against Plasmodium falciparum subclone 3A3 containing 1 copy number of pfmdr1-containing amplicon on chromosome 5 assessed as growth inhibition by [3H]hypoxanthine incorporation assay; format: functional, organism-based
Plasmodium falciparum [22] = experiment: Antimicrobial activity against drug pre-treated Plasmodium falciparum clone W2AL80 containing 3 copy number of pfmdr1-containing amplicon on chromosome 5 assessed as growth inhibition by [3H]hypoxanthine incorporation assay; format: functional, organism-based
Plasmodium falciparum [23] = experiment: Ratio of IC90 for Plasmodium falciparum subclone 3A12 containing 2 copy number of pfmdr1-containing amplicon on chromosome 5 to IC90 for wild type Plasmodium falciparum W2; format: functional
Plasmodium falciparum [24] = experiment: Ratio of IC90 for Plasmodium falciparum subclone 3A1 containing 1 copy number of pfmdr1-containing amplicon on chromosome 5 to IC90 for wild type Plasmodium falciparum W2; format: functional
Plasmodium falciparum [25] = experiment: Antimicrobial activity against Plasmodium falciparum subclone 3A17 containing 2 copy number of pfmdr1-containing amplicon on chromosome 5 assessed as growth inhibition by [3H]hypoxanthine incorporation assay; format: functional, organism-based
Plasmodium falciparum [26] = experiment: Ratio of IC90 for Plasmodium falciparum clone W2AL80 containing 3 copy number of pfmdr1-containing amplicon on chromosome 5 to IC90 for wild type Plasmodium falciparum W2; format: functional
Plasmodium falciparum [27] = experiment: Ratio of IC50 for Plasmodium falciparum subclone 3A8 containing 3 copy number of pfmdr1-containing amplicon on chromosome 5 to IC50 for wild type Plasmodium falciparum W2; format: functional
Plasmodium falciparum [28] = experiment: Antimicrobial activity against Plasmodium falciparum subclone 3C1 containing 3 copy number of pfmdr1-containing amplicon on chromosome 5 assessed as growth inhibition by [3H]hypoxanthine incorporation assay; format: functional, organism-based
Plasmodium falciparum [29] = experiment: Antimicrobial activity against compound-sensitive Plasmodium falciparum clone W2 assessed as growth inhibition by [3H]hypoxanthine incorporation assay; format: functional, organism-based
Plasmodium falciparum [30] = experiment: Ratio of IC50 for Plasmodium falciparum clone W2AL80 containing 3 copy number of pfmdr1-containing amplicon on chromosome 5 to IC50 for wild type Plasmodium falciparum W2; format: functional
Plasmodium falciparum [31] = experiment: Ratio of IC90 for Plasmodium falciparum subclone 3A26 containing 3 copy number of pfmdr1-containing amplicon on chromosome 5 to IC90 for wild type Plasmodium falciparum W2; format: functional
Plasmodium falciparum [32] = experiment: Ratio of IC90 for Plasmodium falciparum subclone 3A8 containing 3 copy number of pfmdr1-containing amplicon on chromosome 5 to IC90 for wild type Plasmodium falciparum W2; format: functional
Plasmodium falciparum [33] = experiment: Antimicrobial activity against Plasmodium falciparum subclone 3C18 containing 3 copy number of pfmdr1-containing amplicon on chromosome 5 assessed as growth inhibition by [3H]hypoxanthine incorporation assay; format: functional, organism-based
Plasmodium falciparum [34] = experiment: Ratio of IC50 for Plasmodium falciparum subclone 3C18 containing 3 copy number of pfmdr1-containing amplicon on chromosome 5 to IC50 for wild type Plasmodium falciparum W2; format: functional
Plasmodium falciparum [35] = experiment: Ratio of IC90 for Plasmodium falciparum subclone 3C10 containing 2 copy number of pfmdr1-containing amplicon on chromosome 5 to IC90 for wild type Plasmodium falciparum W2; format: functional
Plasmodium falciparum [36] = experiment: Ratio of IC90 for Plasmodium falciparum subclone 3A17 containing 2 copy number of pfmdr1-containing amplicon on chromosome 5 to IC90 for wild type Plasmodium falciparum W2; format: functional
Plasmodium falciparum [37] = experiment: Ratio of IC90 for Plasmodium falciparum subclone 3C18 containing 3 copy number of pfmdr1-containing amplicon on chromosome 5 to IC90 for wild type Plasmodium falciparum W2; format: functional

SMILES: OC(c1cc(C(F)(F)F)nc2c(C(F)(F)F)cccc12)C1CCCCN1 (stereo unspecified) [MEFLOQUINE]
- Ratio IC50 (Plasmodium falciparum [1]): 1.7
- IC90 (Plasmodium falciparum [2]): 0.0756 µg/mL (≈ 0.2 µM)
- Ratio IC50 (Plasmodium falciparum [3]): 1.7
- Ratio IC50 (Plasmodium falciparum [4]): 2.6
- Ratio IC50 (Plasmodium falciparum [5]): 1
- Ratio IC50 (Plasmodium falciparum [6]): 3
- IC90 (Plasmodium falciparum [7]): 0.0821 µg/mL (≈ 0.217 µM)
- IC50 (Plasmodium falciparum [8]): 0.0191 µg/mL (≈ 0.0504 µM)
- IC90 (Plasmodium falciparum [8]): 0.075 µg/mL (≈ 0.198 µM)
- Ratio IC50 (Plasmodium falciparum [9]): 3.8
- IC90 (Plasmodium falciparum [10]): 0.0519 µg/mL (≈ 0.137 µM)
- Ratio IC50 (Plasmodium falciparum [11]): 2.5
- Ratio (Plasmodium falciparum [12]): 5.9
- Ratio IC50 (Plasmodium falciparum [13]): 3.1
- Ratio (Plasmodium falciparum [14]): 5.7
- Ratio (Plasmodium falciparum [15]): 2.8
- Ratio IC50 (Plasmodium falciparum [16]): 2.2
- Ratio (Plasmodium falciparum [17]): 5.4
- IC90 (Plasmodium falciparum [18]): 0.0778 µg/mL (≈ 0.206 µM)
- IC50 (Plasmodium falciparum [19]): 0.00738 µg/mL (≈ 0.0195 µM)
- IC90 (Plasmodium falciparum [19]): 0.0261 µg/mL (≈ 0.069 µM)
- IC90 (Plasmodium falciparum [20]): 0.0833 µg/mL (≈ 0.22 µM)
- IC90 (Plasmodium falciparum [21]): 0.0406 µg/mL (≈ 0.107 µM)
- IC90 (Plasmodium falciparum [22]): 0.104 µg/mL (≈ 0.274 µM)
- Ratio (Plasmodium falciparum [23]): 3.6
- Ratio (Plasmodium falciparum [24]): 1.8
- IC50 (Plasmodium falciparum [25]): 0.019 µg/mL (≈ 0.0501 µM)
- IC90 (Plasmodium falciparum [25]): 0.0954 µg/mL (≈ 0.252 µM)
- Ratio (Plasmodium falciparum [26]): 7.2
- Ratio IC50 (Plasmodium falciparum [27]): 2.6
- IC90 (Plasmodium falciparum [28]): 0.0849 µg/mL (≈ 0.224 µM)
- IC50 (Plasmodium falciparum [29]): 7.72 ng/mL (≈ 0.0204 µM)
- IC90 (Plasmodium falciparum [29]): 14.5 ng/mL (≈ 0.0383 µM)
- Ratio IC50 (Plasmodium falciparum [30]): 2.3
- Ratio (Plasmodium falciparum [31]): 5.2
- Ratio (Plasmodium falciparum [32]): 5.2
- IC90 (Plasmodium falciparum [33]): 0.102 µg/mL (≈ 0.269 µM)
- Ratio IC50 (Plasmodium falciparum [34]): 2.9
- Ratio (Plasmodium falciparum [35]): 5.9
- Ratio (Plasmodium falciparum [36]): 6.6
- Ratio (Plasmodium falciparum [37]): 7

SMILES: C[C@@H]1[C@H](OCc2ccc(C(=O)O)cc2)O[C@@H]2O[C@@]3(C)CC[C@@H]4[C@@H](C)CC[C@@H]1[C@]24OO3 [ARTELINIC ACID]
- Ratio IC50 (Plasmodium falciparum [1]): 11
- IC50 (Plasmodium falciparum [2]): 0.0629 µg/mL (≈ 0.15 µM)
- IC90 (Plasmodium falciparum [2]): 0.12 µg/mL (≈ 0.286 µM)
- Ratio IC50 (Plasmodium falciparum [3]): 8.8
- Ratio IC50 (Plasmodium falciparum [4]): 12.5
- Ratio IC50 (Plasmodium falciparum [5]): 7.6
- Ratio IC50 (Plasmodium falciparum [6]): 10.2
- IC50 (Plasmodium falciparum [7]): 0.0395 µg/mL (≈ 0.0945 µM)
- IC90 (Plasmodium falciparum [7]): 0.0936 µg/mL (≈ 0.224 µM)
- IC50 (Plasmodium falciparum [8]): 0.052 µg/mL (≈ 0.124 µM)
- IC90 (Plasmodium falciparum [8]): 0.113 µg/mL (≈ 0.269 µM)
- Ratio IC50 (Plasmodium falciparum [9]): 12.1
- IC50 (Plasmodium falciparum [10]): 0.0423 µg/mL (≈ 0.101 µM)
- IC90 (Plasmodium falciparum [10]): 0.114 µg/mL (≈ 0.271 µM)
- Ratio IC50 (Plasmodium falciparum [11]): 13.5
- Ratio (Plasmodium falciparum [12]): 18.5
- Ratio IC50 (Plasmodium falciparum [13]): 18.9
- Ratio (Plasmodium falciparum [14]): 14.7
- Ratio (Plasmodium falciparum [15]): 9.3
- Ratio IC50 (Plasmodium falciparum [16]): 11
- Ratio (Plasmodium falciparum [17]): 17
- IC50 (Plasmodium falciparum [18]): 0.0467 µg/mL (≈ 0.112 µM)
- IC90 (Plasmodium falciparum [18]): 0.0924 µg/mL (≈ 0.221 µM)
- IC50 (Plasmodium falciparum [19]): 0.0294 µg/mL (≈ 0.0703 µM)
- IC90 (Plasmodium falciparum [19]): 0.0531 µg/mL (≈ 0.127 µM)
- IC50 (Plasmodium falciparum [20]): 0.0424 µg/mL (≈ 0.101 µM)
- IC90 (Plasmodium falciparum [20]): 0.08 µg/mL (≈ 0.191 µM)
- IC50 (Plasmodium falciparum [21]): 0.034 µg/mL (≈ 0.0813 µM)
- IC90 (Plasmodium falciparum [21]): 0.0504 µg/mL (≈ 0.12 µM)
- IC50 (Plasmodium falciparum [22]): 0.0488 µg/mL (≈ 0.117 µM)
- IC90 (Plasmodium falciparum [22]): 0.123 µg/mL (≈ 0.295 µM)
- Ratio (Plasmodium falciparum [23]): 20.9
- Ratio (Plasmodium falciparum [24]): 9.8
- IC50 (Plasmodium falciparum [25]): 0.0481 µg/mL (≈ 0.115 µM)
- IC90 (Plasmodium falciparum [25]): 0.0867 µg/mL (≈ 0.207 µM)
- Ratio (Plasmodium falciparum [26]): 22.7
- Ratio IC50 (Plasmodium falciparum [27]): 16.3
- IC50 (Plasmodium falciparum [28]): 0.0731 µg/mL (≈ 0.175 µM)
- IC90 (Plasmodium falciparum [28]): 0.1 µg/mL (≈ 0.24 µM)
- IC50 (Plasmodium falciparum [29]): 3.86 ng/mL (≈ 0.00922 µM)
- IC90 (Plasmodium falciparum [29]): 5.44 ng/mL (≈ 0.013 µM)
- Ratio IC50 (Plasmodium falciparum [30]): 12.7
- Ratio (Plasmodium falciparum [31]): 20.7
- Ratio (Plasmodium falciparum [32]): 22
- IC50 (Plasmodium falciparum [33]): 0.0814 µg/mL (≈ 0.194 µM)
- IC90 (Plasmodium falciparum [33]): 0.111 µg/mL (≈ 0.265 µM)
- Ratio IC50 (Plasmodium falciparum [34]): 21.1
- Ratio (Plasmodium falciparum [35]): 17.2
- Ratio (Plasmodium falciparum [36]): 15.9
- Ratio (Plasmodium falciparum [37]): 20.4
